Data as given in patent publication US8067424B2, “Selective inhibitors for cyclin-dependent kinases” (Emory University, priority 2007, dated 2011).
Where two headings read alike, the source gives them in different places.

Tests used:
PIM3 = PIM3 (Homo sapiens, UniProt Q86V86); assay: Kinase screen: PIM3 assay; type: biochemical
Method: (§1) Generally, the same procedure was used for all assays. Since the total assay volume was 25.5 microliters, 0.5 microliters of inhibitors at 51× assay concentration were added to the plates before any other addition.
(§2) The basic procedure was to add 0.5 microliters inhibitor/control in DMSO to plate. Fifteen microliters of enzyme/substrate/buffer mix were added and incubated for 5 min. Ten microliters MgATP at the relevant concentration were added and incubated for 30 min. The assay was stopped by adding 5 microliters of 3% orthophosphoric acid. The assay was transferred to a p81 filter plate and read in a scintillation counter of 30 sec/well. Note that this assay procedure was not followed for MKK1, which instead involved a two-step assay, and PKC alpha, which required the addition of lipid vesicles.
(§3) PIM3 assay: PIM3 (5-20 mU diluted in 50 mM Tris pH 7.5, 0.1 mM EGTA, 0.1% b-mercaptoethanol, 1 mg/ml BSA) was assayed against a substrate peptide ([…]) (SEQ ID NO: 23) in a final volume of 25.5 μl containing 50 mM Tris pH 7.5, 0.05% b-mercaptoethanol, 300 μM substrate peptide, 10 mM magnesium acetate and 0.02 mM [33P-g-ATP] (50-1000 cpm/pmole) and incubated for 30 min at room temperature. Assays were stopped by addition of 5 μl of 0.5 M (3%) orthophosphoric acid and then harvested onto P81 Unifilter plates with a wash buffer of 50 mM orthophosphoric acid.

EFK2 = EFK2 (Homo sapiens, UniProt O00418); assay: Kinase screen: EF2K assay; type: biochemical
Method: as §1, §2
as §3, with “EF2K” for “PIM3”, “Hepes” for “Tris”, “6.6,” for “7.5, 0.1 mM EGTA,”, “27)” for “23)”, “6.6, 0.2 mM CaCl2, 0.3 μM Calmodulin,” for “7.5,”, “0.005” for “0.02”

SRPK1 = SRPK1 (Homo sapiens, UniProt Q96SB4); assay: Kinase screen: SRPK1 assay; type: biochemical
Method: as §1, §2
SRPK1 assay: 5-20 mU of SRPK1 (diluted in 50 mM Tris (pH 7.5), 0.1 mM EGTA, 1 mg/ml BSA, 0.1%, b-Mercaptoethanol) was assayed against substrate peptide ([…]) (SEQ ID NO: 25) in a final volume of 25.5 μl containing 50 mM Tris (pH 7.5), 0.1 mM EGTA, 0.1%, b-Mercaptoethanol, 300 μM substrate peptide, 10 mM magnesium acetate and 0.05 mM [33P-g-ATP] (500-1000 cpm/pmole) and incubated for 30 mins at room temperature. Assays were stopped by addition of 5 μl of 0.5M (3%) orthophosphoric acid. Assays were harvested onto P81 Unifilter plates using a wash buffer of 50 mM orthophosphoric acid.

ERK2 = ERK2 (Homo sapiens, UniProt P28482); assay: Kinase screen: MAPK2/ERK2 assay; type: biochemical
Method: as §1, §2
MAPK2/ERK2 assay: MAPK/ERK2 (5-20 mU diluted in 50 mM Tris pH 7.5, 0.1 mM EGTA, 0.1 mM Na3VO4, 0.1% b-mercaptoethanol, 1 mg/ml BSA) was assayed against MBP in a final volume of 25.5 μl in 25 mM Tris pH 7.5, 0.1 mM EGTA, 0.33 mg/ml MBP, 10 mM magnesium acetate and 0.05 mM [33P-g-ATP] (500-1000 cpm/pmole) and incubated for 30 min at room temperature. Assays were stopped by addition of 5 μl of 0.5 M (3%) orthophosphoric acid and then harvested onto P81 Unifilter plates with a wash buffer of 50 mM orthophosphoric acid.

PAK5 = PAK5 (Homo sapiens, UniProt Q9P286); assay: Kinase screen: PAK5 (PAK7) assay; type: biochemical
Method: as §1, §2
as §3, with “PAK5 (PAK7)” for “PIM3”, “PAK5 (PAK7)(5-20” for “PIM3 (5-20”, “30)” for “23)”

MCF-7 cell line = assay: cells; type: cell-based; conditions: Homo sapiens; for IC (total growth inhibition): read-out: TGI
[1] = 10 micromolar compound, read-out: mean activity remaining (as a percentage of the original activity), PIM3
[2] = 10 micromolar compound, read-out: mean activity remaining (as a percentage of the original activity), EFK2
[3] = 10 micromolar compound, read-out: mean activity remaining (as a percentage of the original activity), SRPK1
[4] = MCF7, 24 h, MCF-7, SRB assay, 24 hours
[5] = MCF7, MCF-7, SRB assay, 24 hours, mean of three experiments, read-out: IC50
[6] = 10 micromolar compound, read-out: mean activity remaining (as a percentage of the original activity), ERK2
[7] = 10 micromolar compound, read-out: mean activity remaining (as a percentage of the original activity), PAK5

Sequence of PAK5 (Q9P286 whole entry): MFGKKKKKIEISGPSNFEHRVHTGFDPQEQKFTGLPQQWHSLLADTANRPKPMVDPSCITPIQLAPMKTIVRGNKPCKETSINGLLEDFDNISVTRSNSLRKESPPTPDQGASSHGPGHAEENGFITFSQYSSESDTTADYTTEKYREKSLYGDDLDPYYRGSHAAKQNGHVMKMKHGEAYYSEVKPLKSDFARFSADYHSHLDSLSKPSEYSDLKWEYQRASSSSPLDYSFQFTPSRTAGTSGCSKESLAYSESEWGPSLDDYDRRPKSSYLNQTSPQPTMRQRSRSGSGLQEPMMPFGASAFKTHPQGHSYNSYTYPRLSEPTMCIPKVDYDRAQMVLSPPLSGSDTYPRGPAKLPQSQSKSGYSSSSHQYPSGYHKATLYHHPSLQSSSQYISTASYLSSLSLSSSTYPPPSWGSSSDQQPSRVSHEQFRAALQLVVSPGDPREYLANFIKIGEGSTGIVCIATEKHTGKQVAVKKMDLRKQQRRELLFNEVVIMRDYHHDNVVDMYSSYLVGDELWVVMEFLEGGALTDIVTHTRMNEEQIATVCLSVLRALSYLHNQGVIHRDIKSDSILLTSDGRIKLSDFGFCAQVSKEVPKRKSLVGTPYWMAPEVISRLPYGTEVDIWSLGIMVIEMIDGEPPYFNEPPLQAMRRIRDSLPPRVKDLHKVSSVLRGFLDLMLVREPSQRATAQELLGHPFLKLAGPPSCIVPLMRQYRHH
Sequence of ERK2 (P28482 whole entry, species assumed): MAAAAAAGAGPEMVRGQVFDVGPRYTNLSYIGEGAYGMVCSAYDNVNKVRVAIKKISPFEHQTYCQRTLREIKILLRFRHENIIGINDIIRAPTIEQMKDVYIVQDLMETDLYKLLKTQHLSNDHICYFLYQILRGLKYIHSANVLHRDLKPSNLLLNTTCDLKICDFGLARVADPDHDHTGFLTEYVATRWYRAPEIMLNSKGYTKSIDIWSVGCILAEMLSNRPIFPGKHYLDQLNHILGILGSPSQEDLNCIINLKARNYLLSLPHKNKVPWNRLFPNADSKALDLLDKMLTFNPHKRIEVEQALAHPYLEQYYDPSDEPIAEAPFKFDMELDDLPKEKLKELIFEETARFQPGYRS
Sequence of SRPK1 (Q96SB4 whole entry, species assumed): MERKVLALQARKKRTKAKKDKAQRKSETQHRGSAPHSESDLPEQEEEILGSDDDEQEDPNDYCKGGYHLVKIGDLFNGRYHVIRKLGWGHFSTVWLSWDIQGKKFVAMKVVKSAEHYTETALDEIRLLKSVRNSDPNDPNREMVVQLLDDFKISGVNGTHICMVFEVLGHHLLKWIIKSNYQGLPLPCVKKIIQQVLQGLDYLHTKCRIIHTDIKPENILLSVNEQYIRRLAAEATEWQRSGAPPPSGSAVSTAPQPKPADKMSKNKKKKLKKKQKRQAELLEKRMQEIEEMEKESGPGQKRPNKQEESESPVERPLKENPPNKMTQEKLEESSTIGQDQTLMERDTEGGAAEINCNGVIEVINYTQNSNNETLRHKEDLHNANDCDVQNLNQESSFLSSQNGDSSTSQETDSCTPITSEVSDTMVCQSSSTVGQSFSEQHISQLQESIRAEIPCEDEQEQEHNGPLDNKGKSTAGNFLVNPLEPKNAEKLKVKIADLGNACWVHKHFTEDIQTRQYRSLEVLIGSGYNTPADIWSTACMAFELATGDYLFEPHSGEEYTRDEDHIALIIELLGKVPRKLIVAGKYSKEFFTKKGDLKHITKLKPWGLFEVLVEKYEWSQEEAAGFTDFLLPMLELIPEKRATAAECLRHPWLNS

## CC(C)c1cnn2c(NCc3ccccc3)cc(NCCCCCCCN)nc12 [BS-181]
PIM3; PIM3, 10 μM, read-out: Mean Remaining Enzyme Activity (%)
  remaining activity at 10 µM: 78%
EFK2; EFK2, 10 μM, read-out: Mean Remaining Enzyme Activity (%)
  remaining activity at 10 µM: 119%
SRPK1; SRPK1, 10 μM, read-out: Mean Remaining Enzyme Activity (%)
  remaining activity at 10 µM: 44%
ERK2; ERK2, 10 μM, read-out: Mean Remaining Enzyme Activity (%)
  remaining activity at 10 µM: 86%
PAK5; PAK5, 10 μM, read-out: Mean Remaining Enzyme Activity (%)
  remaining activity at 10 µM: 80%

## C=C[C@H](CO)Nc1cc(NCc2ccccc2)n2ncc(C(C)C)c2n1 [ICEC0065]
PIM3; [1]
  remaining activity at 10 µM: 100%
EFK2; [2]
  remaining activity at 10 µM: 97%
SRPK1; [3]
  remaining activity at 10 µM: 84%
MCF-7 cell line; [4]
  LC50 (concentration causing 50% net cell kill): 8.5 µM
  IC (total growth inhibition): 12 µM
MCF-7 cell line; [5]
  IC50: > 100 µM
ERK2; [6]
  remaining activity at 10 µM: 59%
PAK5; [7]
  remaining activity at 10 µM: 81%

## CC[C@H](CO)Nc1cc(NCc2ccccc2)n2ncc(C(C)C)c2n1 [ICEC0067]
PIM3; [1]
  remaining activity at 10 µM: 96%
EFK2; [2]
  remaining activity at 10 µM: 95%
SRPK1; [3]
  remaining activity at 10 µM: 50%
MCF-7 cell line; [4]
  IC (total growth inhibition): 13 µM
MCF-7 cell line; [5]
  IC50: > 100 µM
ERK2; [6]
  remaining activity at 10 µM: 59%
PAK5; [7]
  remaining activity at 10 µM: 89%

## CC(C)c1cnn2c(NCc3ccccc3)cc(N[C@@H](CO)[C@H](O)CO)nc12 [ICEC0318, (3S)-3-(7-(Benzylamino)-3-isopropylpyrazolo[1,5-a]pyrimidin-5-ylamino)butane-1,2,4-triol]
PIM3; [1]
  remaining activity at 10 µM: 101%
EFK2; [2]
  remaining activity at 10 µM: 92%
SRPK1; [3]
  remaining activity at 10 µM: 62%
MCF-7 cell line; MCF7, 24 h
  IC50: < 2 µM
MCF-7 cell line; [4]
  IC (total growth inhibition): < 2 µM
ERK2; [6]
  remaining activity at 10 µM: 26%
PAK5; [7]
  remaining activity at 10 µM: 65%

## CC(C)c1cnn2c(NCc3ccccc3F)cc(NCCCCCN)nc12 [ICEC-0232]
PIM3; 10 micromolar compound
  mean activity remaining (as a percentage of the original activity), PIM3: 76%
EFK2; 10 micromolar compound
  mean activity remaining (as a percentage of the original activity), EFK2: 98%
SRPK1; 10 micromolar compound
  mean activity remaining (as a percentage of the original activity), SRPK1: 38%
ERK2; 10 micromolar compound
  mean activity remaining (as a percentage of the original activity), ERK2: 70%
PAK5; 10 micromolar compound
  mean activity remaining (as a percentage of the original activity), PAK5: 81%
